This passage reports Activity results from ChEMBL document CHEMBL4418265, “Piperidinylpyrazolopyridine derivatives” (2016).

The structures appear in SMILES notation.

The experiment deals with Cynomolgus monkey. As to the kind of experiment: Increase in HDL-C level in cynomolgus monkey plasma at 10 mg/kg, po administered as single dose measured after 1 or 7 days by HPLC method. It is filed as functional, Macaca fascicularis.

For `O=C1CC(O)(C(F)(F)F)c2c(C3CCN(c4ccc(OC(F)F)cc4)CC3)n[nH]c2N1` (single isomer, unassigned), the Activity is listed as 644%.
